Laboratory results taken from PubChem BioAssay AID1918954 (Molecular Pharmacology Branch, DTP, NCI, 2023).

System: MDA-MB-468 complex spheroids with HUVEC/MSC, viability
Experiment: Anticancer human tumor MDA-MB-468 cell line growth inhibition;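 also: spheroids exposed to agents for seven days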;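 as to viability, T/C: 100% = DMSO vehicle control viability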
Conditions: for IC50: curve of first compound; for viability, T/C: stronger effect = lower value
Excerpt: Multicellular complex tumor spheroid response to LSD1 Inhibitor Iadademstat in combination with a variety of drugs and investigational agents in selected tumor cell lines
The current study was undertaken to assess response to LSD1 inhibitors in combination with standard-of-care drugs and investigational agents in solid tumor complex spheroid models as well as in the K-562 leukemia. Complex spheroids include a stromal component modeled by human endothelial cells (HUVEC) and fibroblasts modeled by human mesenchymal stem cells (MSCs). The concentration ranges selected for each drug and investigational agent were based upon clinically achievable concentrations if the clinical Cmax of the agent was known.
Compounds. The drugs and investigational agents used in this study are listed on Table 1. All of the agents used, including staurosporine (NSC755774) and gemcitabine (NSC613327), were obtained from the Developmental Therapeutics Program, NCI. FDA-approved anticancer drugs are available from the NCI at http://dtp.nci.nih.gov/branches/dscb/oncology_drugset_explanation.html. Drugs and investigational agents were >95% pure by proton nuclear magnetic resonance (NMR) and liquid chromatography/mass spectrometry (LC/MS). Stock solutions were prepared at 400x in DMSO, stored at -70 degrees C, and diluted in fresh medium prior to their use. The final concentration of DMSO in cell culture wells never exceeded 0.25% (v/v). The FDA-approved anticancer drug set is available from the Developmental Therapeutics Program at https://dtp.cancer.gov/organization/dscb/obtaining/available_plates.htm. All drugs and investigational agents were tested over a range starting from a high concentration at or near the clinical Cmax and decreasing in half-log increments. If the clinical Cmax for an agent had not been determined, the highest concentration tested was 10 microM.
Cell Lines. The patient-derived cancer cell (PDC) lines: 292921-168-R-J2-PDC, K24384-001-R-PDC, and 521955-158-R2-J5-PDC pancreatic carcinomas, 556581-035-R-J1 ovarian carcinoma, 324938-238-R-J1-PDC, 855422-203-R-J1-PDC and 883617-216-R-J1-PDC urothelial bladder carcinomas, 743489-274-T-PDC renal cell carcinoma, 138582-R-J1 Merkel cell tumor, K60290-347-R-J1 and K57222-313-R-J1-PDC glioblastomas, 653999-131-R-J2-PDC, LG0703-F948-PDC, and 349418-098-R-PDC non-small cell lung carcinomas, 885512-296-R-J2-PDC, 171881-019-R-J1-PDC breast carcinomas and 186277-243-T-J2-PDC and 233499-124-R-J2-PDC colon carcinomas were obtained from the NCI Patient-Derived Models Repository (PDMR, https://pdmr.cancer.gov). The established cell lines NCI/ADR-RES (RRID:CVCL_14520 and OVCAR-5 (RRID:CVCL_1628) ovarian carcinomas, 786-O (RRID:CVCL_1051) and A498 (RRID:CVCL_A498) renal cell carcinoma, NCI-H211 (ATCC, cat. CRL-5824; RRID:CVCL_1529), NCI-H196 (ATCC, cat. CRL-5823, RRID:CVCL_1509), SW 1271 (ATCC, cat. CRL-2177, RRID:CVCL_1716) and NCI-H1876 (ATCC, cat. CRL-5902, RRID:CVCL_1503) small cell lung carcinomas, MDA-MB-231 (RRID:CVCL_0062) and MDA-MB-468 (RRID:CVCL_0419)breast carcinomas (10-12). Pooled donor human umbilical vein endothelial cells (HUVEC, Lonza, cat. CC-2519) and human mesenchymal stem cells (hMSC, Lonza, cat. PT-2501) were purchased from Lonza (Walkersville, MD).
Cell Culture. All cells were maintained in an incubator at 37 degrees C and 5% CO2 with 95% humidity. The PDC lines were cultured according to standard operating procedures established by the NCI PDMR (https://pdmr.cancer.gov). Briefly all PDCs were thawed and cultured in Matrigel-coated flasks prepared with a working solution of 1X Ham's F-12 nutrient mix, without supplementation (Invitrogen, Waltham, MA, cat. 11765054), 100 U/mL penicillin-streptomycin (Invitrogen, cat. 15140122), and 2.5% Matrigel (Corning Inc., Corning, NY, cat. 354248) for the first three passages. […]

[1] = second compound 0.1 µM, first compound 0.0316 µM
[2] = second compound 0.1 µM, first compound 0.1 µM
[3] = second compound 0.1 µM, first compound 0.316 µM
[4] = second compound 0.1 µM, first compound 1 µM
[5] = second compound 0.316 µM, first compound 0.0316 µM
[6] = second compound 0.316 µM, first compound 0.1 µM
[7] = second compound 0.316 µM, first compound 0.316 µM
[8] = second compound 0.316 µM, first compound 1 µM
[9] = second compound 1 µM, first compound 0.0316 µM
[10] = second compound 1 µM, first compound 0.1 µM
[11] = second compound 1 µM, first compound 0.316 µM
[12] = second compound 1 µM, first compound 1 µM
[13] = second compound 3.16 µM, first compound 0.0316 µM
[14] = second compound 3.16 µM, first compound 0.1 µM
[15] = second compound 3.16 µM, first compound 0.316 µM
[16] = second compound 3.16 µM, first compound 1 µM
[17] = second compound 10 µM, first compound 0.0316 µM
[18] = second compound 10 µM, first compound 0.1 µM
[19] = second compound 10 µM, first compound 0.316 µM
[20] = second compound 10 µM, first compound 1 µM

Q: Which IC50 (second compound 0.1 µM) does the source give for Nc1ncn(C2CC(O)C(CO)S2)c(=O)n1 (stereo not given) + NC1CC1c1ccc(-c2cccc(O)c2)cc1 here?
A: 21.2 nM

Q: What about the IC50 (second compound 0.316 µM) of the same molecule?
A: 18.9 nM

Q: What about the IC50 (second compound 1 µM) of the same molecule?
A: 11.8 nM

Q: What about the IC50 (second compound 3.16 µM) of the same molecule?
A: 10.7 nM

Q: And the IC50 (second compound 10 µM)?
A: 3.83 nM

Q: And the viability, T/C (second compound 0.1 µM, first compound 0.000949 µM)?
A: 104%

Q: And the viability, T/C (second compound 0.1 µM, first compound 0.003 µM)?
A: 87.9%

Q: What about the viability, T/C (second compound 0.1 µM, first compound 0.00949 µM) of the same molecule?
A: 56.7%

Q: What about the viability, T/C (second compound 0.1 µM, first compound 0.03 µM) of the same molecule?
A: 47.2%

Q: What about the viability, T/C (second compound 0.1 µM, first compound 0.0949 µM) of the same molecule?
A: 31.8%

Q: And the viability, T/C (second compound 0.1 µM, first compound 0.3 µM)?
A: 19.5%

Q: What about the viability, T/C (second compound 0.316 µM, first compound 0.000949 µM) of the same molecule?
A: 84%

Q: What about the viability, T/C (second compound 0.316 µM, first compound 0.003 µM) of the same molecule?
A: 77.1%

Q: What about the viability, T/C (second compound 0.316 µM, first compound 0.00949 µM) of the same molecule?
A: 57.8%

Q: What about the viability, T/C (second compound 0.316 µM, first compound 0.03 µM) of the same molecule?
A: 45.1%

Q: And the viability, T/C (second compound 0.316 µM, first compound 0.0949 µM)?
A: 26.3%

Q: What about the viability, T/C (second compound 0.316 µM, first compound 0.3 µM) of the same molecule?
A: 16.4%

Q: What about the viability, T/C (second compound 1 µM, first compound 0.000949 µM) of the same molecule?
A: 80.8%

Q: What about the viability, T/C (second compound 1 µM, first compound 0.003 µM) of the same molecule?
A: 76%

Q: And the viability, T/C (second compound 1 µM, first compound 0.00949 µM)?
A: 49.6%

Q: And the viability, T/C (second compound 1 µM, first compound 0.03 µM)?
A: 35.4%

Q: And the viability, T/C (second compound 1 µM, first compound 0.0949 µM)?
A: 23.9%

Q: And the viability, T/C (second compound 1 µM, first compound 0.3 µM)?
A: 13.9%

Q: And the viability, T/C (second compound 3.16 µM, first compound 0.000949 µM)?
A: 90.4%

Q: What about the viability, T/C (second compound 3.16 µM, first compound 0.003 µM) of the same molecule?
A: 81.3%

Q: And the viability, T/C (second compound 3.16 µM, first compound 0.00949 µM)?
A: 47.7%

Q: And the viability, T/C (second compound 3.16 µM, first compound 0.03 µM)?
A: 33%

Q: What about the viability, T/C (second compound 3.16 µM, first compound 0.0949 µM) of the same molecule?
A: 22.5%

Q: What about the viability, T/C (second compound 3.16 µM, first compound 0.3 µM) of the same molecule?
A: 13.5%

Q: What about the viability, T/C (second compound 10 µM, first compound 0.000949 µM) of the same molecule?
A: 62.5%

Q: What about the viability, T/C (second compound 10 µM, first compound 0.003 µM) of the same molecule?
A: 53.6%

Q: What about the viability, T/C (second compound 10 µM, first compound 0.00949 µM) of the same molecule?
A: 39.1%

Q: And the viability, T/C (second compound 10 µM, first compound 0.03 µM)?
A: 29.9%

Q: What about the viability, T/C (second compound 10 µM, first compound 0.0949 µM) of the same molecule?
A: 19.8%

Q: What about the viability, T/C (second compound 10 µM, first compound 0.3 µM) of the same molecule?
A: 13.8%

Q: For Nc1ncn(C2CC(O)C(CO)O2)c(=O)n1 (stereo not given) + NC1CC1c1ccc(-c2cccc(O)c2)cc1, which IC50 (second compound 0.1 µM) is on record?
A: 16.4 nM

Q: And the IC50 (second compound 0.316 µM)?
A: 19.3 nM

Q: And the IC50 (second compound 1 µM)?
A: 17.9 nM

Q: What about the IC50 (second compound 3.16 µM) of the same molecule?
A: 15 nM

Q: And the IC50 (second compound 10 µM)?
A: 9.07 nM

Q: What about the viability, T/C (second compound 0.1 µM, first compound 0.00316 µM) of the same molecule?
A: 87.3%

Q: And the viability, T/C (second compound 0.1 µM, first compound 0.01 µM)?
A: 66.9%

Q: And the viability, T/C [1]?
A: 27.2%

Q: What about the viability, T/C [2] of the same molecule?
A: 12.3%

Q: And the viability, T/C [3]?
A: 9.59%

Q: What about the viability, T/C [4] of the same molecule?
A: 7.38%

Q: What about the viability, T/C (second compound 0.316 µM, first compound 0.00316 µM) of the same molecule?
A: 89.9%

Q: What about the viability, T/C (second compound 0.316 µM, first compound 0.01 µM) of the same molecule?
A: 74.8%

Q: What about the viability, T/C [5] of the same molecule?
A: 31.2%

Q: What about the viability, T/C [6] of the same molecule?
A: 11.8%

Q: What about the viability, T/C [7] of the same molecule?
A: 8.68%

Q: What about the viability, T/C [8] of the same molecule?
A: 6.69%

Q: And the viability, T/C (second compound 1 µM, first compound 0.00316 µM)?
A: 92.4%

Q: And the viability, T/C (second compound 1 µM, first compound 0.01 µM)?
A: 72.2%

Q: And the viability, T/C [9]?
A: 27.8%

Q: What about the viability, T/C [10] of the same molecule?
A: 12.6%

Q: And the viability, T/C [11]?
A: 7.79%

Q: What about the viability, T/C [12] of the same molecule?
A: 7.05%

Q: And the viability, T/C (second compound 3.16 µM, first compound 0.00316 µM)?
A: 90.1%

Q: And the viability, T/C (second compound 3.16 µM, first compound 0.01 µM)?
A: 64%

Q: What about the viability, T/C [13] of the same molecule?
A: 24.4%

Q: And the viability, T/C [14]?
A: 11.6%

Q: And the viability, T/C [15]?
A: 8.23%

Q: And the viability, T/C [16]?
A: 6.83%

Q: What about the viability, T/C (second compound 10 µM, first compound 0.00316 µM) of the same molecule?
A: 69%

Q: What about the viability, T/C (second compound 10 µM, first compound 0.01 µM) of the same molecule?
A: 48.1%

Q: What about the viability, T/C [17] of the same molecule?
A: 25.1%

Q: What about the viability, T/C [18] of the same molecule?
A: 11.4%

Q: What about the viability, T/C [19] of the same molecule?
A: 7.65%

Q: And the viability, T/C [20]?
A: 6.35%

Q: Which results are given for CC1(C)CCC(CN2CCN(c3ccc(C(=O)NS(=O)(=O)c4ccc(NCC5CCOCC5)c([N+](=O)[O-])c4)c(Oc4cnc5[nH]ccc5c4)c3)CC2)=C(c2ccc(Cl)cc2)C1 + NC1CC1c1ccc(-c2cccc(O)c2)cc1?
A: IC50 (second compound 0.1 µM): 1820 nM; IC50 (second compound 0.316 µM): 1700 nM; IC50 (second compound 1 µM): 1830 nM; IC50 (second compound 3.16 µM): 1550 nM; IC50 (second compound 10 µM): 509 nM; viability, T/C [1]: 106%; viability, T/C [2]: 90.4%; viability, T/C [3]: 96.9%; viability, T/C [4]: 72.7%; viability, T/C (second compound 0.1 µM, first compound 3.16 µM): 29%; viability, T/C (second compound 0.1 µM, first compound 10 µM): 2.15%; viability, T/C [5]: 90.3%; viability, T/C [6]: 108%; viability, T/C [7]: 94.4%; viability, T/C [8]: 64.7%; viability, T/C (second compound 0.316 µM, first compound 3.16 µM): 30.9%; viability, T/C (second compound 0.316 µM, first compound 10 µM): 1.99%; viability, T/C [9]: 93.7%; viability, T/C [10]: 101%; viability, T/C [11]: 88.6%; viability, T/C [12]: 75.8%; viability, T/C (second compound 1 µM, first compound 3.16 µM): 27.4%; viability, T/C (second compound 1 µM, first compound 10 µM): 2.31%; viability, T/C [13]: 91.2%; viability, T/C [14]: 83.1%; viability, T/C [15]: 92.1%; viability, T/C [16]: 64%; viability, T/C (second compound 3.16 µM, first compound 3.16 µM): 24.5%; viability, T/C (second compound 3.16 µM, first compound 10 µM): 1.95%; viability, T/C [17]: 78.5%; viability, T/C [18]: 67.7%; viability, T/C [19]: 59.9%; viability, T/C [20]: 38.5%; viability, T/C (second compound 10 µM, first compound 3.16 µM): 16.8%; viability, T/C (second compound 10 µM, first compound 10 µM): 1.82%
